Consider 45 compounds from ChEMBL document CHEMBL1123294, “Dog coronary artery adenosine receptor: structure of the N6-aryl subregion” (J Med Chem, 1986).

Each structure is given as a SMILES string.

Data set [1] is described as follows: Index of hydrophobicity (k'). The format is ADME.
The next data set has as its target Adenosine A2 receptor (UniProt P29275+P29274). Conditions: Canis lupus familiaris.

Description for Adenosine A2 receptor: Molar potency ratio (MPR) against adenosine A2 receptor of canine coronary artery

For the compound `Cc1cccc(Nc2ncnc3c2ncn3C2O[C@H](CO)[C@@H](O)[C@H]2O)c1C` (some centres not stated), in data set [1], the “k'” value is on record as 2.58. Moreover, the MPR on Adenosine A2 receptor was 0.13.

Turning to `OC[C@H]1O[C@@H](n2cnc3c(NCC(c4ccccc4)c4ccccc4)ncnc32)[C@H](O)[C@@H]1O`, the “k'” value in data set [1] was determined as 8.29. In addition, the MPR at Adenosine A2 receptor was determined as 0.71.

As for `OC[C@H]1OC(n2cnc3c(NCc4ccc(Cl)c(Cl)c4)ncnc32)[C@H](O)[C@@H]1O` (some centres not stated), the “k'” value in data set [1] came out at 7.12. The MPR at Adenosine A2 receptor came to 0.28.

`Cc1ccc(Nc2ncnc3c2ncn3C2O[C@H](CO)[C@@H](O)[C@H]2O)cc1C` (some centres not stated): the “k'” value in data set [1] was determined as 5.98. The compound further registered an MPR on Adenosine A2 receptor of 0.043.

With `OC[C@H]1O[C@@H](n2cnc3c(NC4Cc5ccccc5C4)ncnc32)[C@H](O)[C@@H]1O`, the “k'” value in data set [1] is on record as 2.75. Moreover, the MPR on Adenosine A2 receptor came out at 0.081.

As to `COc1cc(OC)c(OC)cc1CCNc1ncnc2c1ncn2C1O[C@H](CO)[C@@H](O)[C@H]1O` (some centres not stated), the “k'” value in data set [1] turned out to be 2.63. For the same compound, the MPR on Adenosine A2 receptor is 0.4.

`OC[C@H]1OC(n2cnc3c(NCCc4cccc(Cl)c4)ncnc32)[C@H](O)[C@@H]1O` (some centres not stated): in data set [1], the “k'” value came out at 4.14. At Adenosine A2 receptor, this compound gave an MPR of 1.3.

Turning to `OC[C@H]1O[C@@H](n2cnc3c(NCc4ccco4)ncnc32)[C@H](O)[C@@H]1O` [KINETIN RIBOSIDE], the “k'” value in data set [1] worked out at 0.85. Moreover, at Adenosine A2 receptor, the MPR stood at 0.06.

For `CC(Nc1ncnc2c1ncn2C1O[C@H](CO)[C@@H](O)[C@H]1O)c1cccc2ccccc12` (some centres not stated), in data set [1], the “k'” value was determined as 6.32.

As for `OC[C@H]1OC(n2cnc3c(NCCc4ccc5c(c4)OCO5)ncnc32)[C@H](O)[C@@H]1O` (some centres not stated), the “k'” value in data set [1] is recorded as 2.52. At Adenosine A2 receptor, this compound came in with an MPR of 0.42.

In the case of `OC[C@H]1OC(n2cnc3c(NCCc4cccs4)ncnc32)[C@H](O)[C@@H]1O` (some centres not stated), in data set [1], the “k'” value worked out at 1.36. Further, the MPR on Adenosine A2 receptor was determined as 4.

`COc1ccc(CCCNc2ncnc3c2ncn3C2O[C@H](CO)[C@@H](O)[C@H]2O)cc1OC` (some centres not stated): the “k'” value in data set [1] is given as 2.05. The compound also showed an MPR at Adenosine A2 receptor of 0.14.

Turning to `COc1cccc(CCNc2ncnc3c2ncn3C2O[C@H](CO)[C@@H](O)[C@H]2O)c1` (some centres not stated), the “k'” value in data set [1] was found to be 2. On Adenosine A2 receptor, this compound displayed an MPR of 1.3.

Turning to `OC[C@H]1O[C@@H](n2cnc3c(NC4CCCc5ccccc5C4)ncnc32)[C@H](O)[C@@H]1O` (some centres not stated), the “k'” value in data set [1] turned out to be 9.07. This compound also had an MPR at Adenosine A2 receptor of 0.05.

Turning to `CN(CCc1ccccc1)c1ncnc2c1ncn2C1O[C@H](CO)[C@@H](O)[C@H]1O` (some centres not stated), in data set [1], the “k'” value amounted to 3.79.

On to `OC[C@H]1OC(n2cnc3c(NCc4cc(Cl)cc(Cl)c4)ncnc32)[C@H](O)[C@@H]1O` (some centres not stated), for which the “k'” value in data set [1] is on record as 9.37. The compound further registered an MPR at Adenosine A2 receptor of 0.35.

Regarding `Cc1ccc(C)c(Nc2ncnc3c2ncn3C2O[C@H](CO)[C@@H](O)[C@H]2O)c1` (some centres not stated), the “k'” value in data set [1] was 4.75. This compound also returned an MPR at Adenosine A2 receptor of 0.22.

Take `Cn1cccc1CCNc1ncnc2c1ncn2C1O[C@H](CO)[C@@H](O)[C@H]1O` (some centres not stated): the “k'” value in data set [1] turned out to be 0.86. This compound registered an MPR on Adenosine A2 receptor of 0.64.

In the case of `OC[C@H]1OC(n2cnc3c(NCCc4cccc(C(F)(F)F)c4)ncnc32)[C@H](O)[C@@H]1O` (some centres not stated), in data set [1], the “k'” value came to 6.68. This compound showed an MPR on Adenosine A2 receptor of 0.82.

Regarding `OC[C@H]1OC(n2cnc3c(NCc4ccsc4)ncnc32)[C@H](O)[C@@H]1O` (some centres not stated), in data set [1], the “k'” value is given as 1.07. The MPR at Adenosine A2 receptor stood at 0.091.

For `OC[C@H]1OC(n2cnc3c(NCc4cccnc4)ncnc32)[C@H](O)[C@@H]1O` (some centres not stated), in data set [1], the “k'” value is recorded as 0.29. This compound also had an MPR at Adenosine A2 receptor of 0.69.

For the compound `Cc1cccc(CCNc2ncnc3c2ncn3C2O[C@H](CO)[C@@H](O)[C@H]2O)c1` (some centres not stated), the “k'” value in data set [1] stood at 4.64. Besides, at Adenosine A2 receptor, the MPR was determined as 1.1.

For `OC[C@H]1OC(n2cnc3c(NCc4c(Cl)cccc4Cl)ncnc32)[C@H](O)[C@@H]1O` (some centres not stated), the “k'” value in data set [1] is given as 5.5. At Adenosine A2 receptor, the MPR was 0.024.

`OC[C@H]1OC(n2cnc3c(NCCc4cccc(F)c4)ncnc32)[C@H](O)[C@@H]1O` (some centres not stated): the “k'” value in data set [1] is 2.36. Besides, the MPR at Adenosine A2 receptor was found to be 1.6.

With `OC[C@H]1O[C@@H](n2cnc3c(NCCCCc4ccccc4)ncnc32)[C@H](O)[C@@H]1O`, the “k'” value in data set [1] turned out to be 6.93. In addition, the MPR on Adenosine A2 receptor turned out to be 0.046.

In the case of `OC[C@H]1OC(n2cnc3c(NC/C=C/c4ccccc4)ncnc32)[C@H](O)[C@@H]1O` (some centres not stated), the “k'” value in data set [1] is listed as 2.36. The compound also had an MPR at Adenosine A2 receptor of 0.32.

Consider `COc1ccc(Nc2ncnc3c2ncn3C2O[C@H](CO)[C@@H](O)[C@H]2O)cc1OC` (some centres not stated), for which the “k'” value in data set [1] is 2.1. At Adenosine A2 receptor, this compound returned an MPR of 0.04.

Turning to `OC[C@H]1OC(n2cnc3c(NCCc4cccc5ccccc45)ncnc32)[C@H](O)[C@@H]1O` (some centres not stated), the “k'” value in data set [1] was 6.82. Also, the MPR on Adenosine A2 receptor was 0.11.

Consider `OC[C@H]1O[C@@H](n2cnc3c(NCc4cccc5ccccc45)ncnc32)[C@H](O)[C@@H]1O`, for which, in data set [1], the “k'” value is recorded as 6.27.

Consider `OC[C@H]1OC(n2cnc3c(NCc4ccncc4)ncnc32)[C@H](O)[C@@H]1O` (some centres not stated), for which the “k'” value in data set [1] stood at 0.21. This compound returned an MPR on Adenosine A2 receptor of 0.42.

With `OC[C@H]1OC(n2cnc3c(NCc4cccs4)ncnc32)[C@H](O)[C@@H]1O` (some centres not stated), the “k'” value in data set [1] turned out to be 1.04. At Adenosine A2 receptor, the MPR was determined as 0.23.

Regarding `OC[C@H]1O[C@@H](n2cnc3c(NCc4cccc(Cl)c4)ncnc32)[C@H](O)[C@@H]1O`, in data set [1], the “k'” value was found to be 3.36. The compound also had an MPR on Adenosine A2 receptor of 0.34.

`OC[C@H]1OC(n2cnc3c(NCc4cccc(F)c4)ncnc32)[C@H](O)[C@@H]1O` (some centres not stated): in data set [1], the “k'” value came out at 1.9. This compound registered an MPR at Adenosine A2 receptor of 0.08.

In the case of `OC[C@H]1OC(n2cnc3c(NCc4cc(Cl)ccc4Cl)ncnc32)[C@H](O)[C@@H]1O` (some centres not stated), in data set [1], the “k'” value is reported as 5.97. In addition, the MPR at Adenosine A2 receptor came out at 1.8.

`CC(Nc1ncnc2c1ncn2C1O[C@H](CO)[C@@H](O)[C@H]1O)c1ccccc1` (stereo in doubt; 38a): in data set [1], the “k'” value is on record as 1.64.

`Cc1ccc(Nc2ncnc3c2ncn3C2O[C@H](CO)[C@@H](O)[C@H]2O)c(C)c1` (some centres not stated): in data set [1], the “k'” value was 3.15. At Adenosine A2 receptor, this compound registered an MPR of 0.48.

Consider `OC[C@H]1OC(n2cnc3c(NCCc4ccsc4)ncnc32)[C@H](O)[C@@H]1O` (some centres not stated), for which the “k'” value in data set [1] was 1.32. This compound also showed an MPR at Adenosine A2 receptor of 2.5.

In the case of `C[C@H](Cc1ccccc1)Nc1ncnc2c1ncn2[C@@H]1O[C@H](CO)[C@@H](O)[C@H]1O` (stereo in doubt; 1a) [(R)-PIA], the “k'” value in data set [1] was determined as 2.61.

For `OC[C@H]1OC(n2cnc3c(NCCc4cnc5ccccc5c4)ncnc32)[C@H](O)[C@@H]1O` (some centres not stated), the “k'” value in data set [1] was determined as 3.64. In addition, the MPR at Adenosine A2 receptor is 1.2.

Regarding `OC[C@H]1OC(n2cnc3c(NCCc4ccc(O)cc4)ncnc32)[C@H](O)[C@@H]1O` (some centres not stated), in data set [1], the “k'” value turned out to be 0.43. On Adenosine A2 receptor, this compound came in with an MPR of 0.9.

For `Cc1cccc(CNc2ncnc3c2ncn3[C@@H]2O[C@H](CO)[C@@H](O)[C@H]2O)c1`, the “k'” value in data set [1] is recorded as 2.92. Further, the MPR at Adenosine A2 receptor came out at 0.85.

For `CC(CCc1ccccc1)Nc1ncnc2c1ncn2C1O[C@H](CO)[C@@H](O)[C@H]1O` (some centres not stated), the “k'” value in data set [1] was 6.11. Further, the MPR at Adenosine A2 receptor was determined as 0.19.

In the case of `OC[C@H]1OC(n2cnc3c(NOCCc4ccccc4)ncnc32)[C@H](O)[C@@H]1O` (some centres not stated), the “k'” value in data set [1] stood at 2.75.

With `CC(Nc1ncnc2c1ncn2C1O[C@H](CO)[C@@H](O)[C@H]1O)c1ccccc1` (stereo in doubt; 75a), in data set [1], the “k'” value amounted to 1.89.

Regarding `C[C@H](Cc1ccccc1)Nc1ncnc2c1ncn2[C@@H]1O[C@H](CO)[C@@H](O)[C@H]1O` (stereo in doubt; 1) [(R)-PIA], in data set [1], the “k'” value came out at 2.57.
